{"source": "patent US4247712A", "about": "“Preservation of aqueous systems with 2-chloro-3-oxobutyramide derivatives” (Givaudan Corporation, priority 1979, dated 1981)", "assay_type_in_all_cases": "cell-based", "key": {"A. niger": {"test_system": "A. niger", "test": "Effectiveness as slimicide for pulp and paper mill water systems", "conditions": "range: growth at lower, none at higher, 62.5 = lowest concentration tested, no growth at it", "experimental": "(§1) Various quantities of a 6% solution of this compound in dimethylformamide were incorporated into 24 ml of a test substrate composed as follows: 84.4 g Whatman No. 2 powdered cellulose 2.6 g Sodium nitrate 1.0 g Calcium sulfate 6.5 g Maltose 1.0 g Nutrient Broth, Difco 10.0 ml Mersize Rm […] (Monsanto) 2.5 ml 2% Alum 900 ml Distilled water The samples were inoculated with four different organisms and incubated at 28° C. At weekly intervals the samples were examined for the presence of microbial growth and reinoculated during a total incubation period of four weeks."}, "P. aeruginosa": {"test_system": "P. aeruginosa", "test": "Effectiveness as slimicide for pulp and paper mill water systems", "conditions": "62.5 = lowest concentration tested, no growth at it", "experimental": "as §1"}, "P. piscarium": {"test_system": "P. piscarium", "test": "Effectiveness as slimicide for pulp and paper mill water systems", "conditions": "read-out: Effectiveness as slimicide (inhibitory concentration range)", "experimental": "as §1"}, "E. aerogenes": {"test_system": "E. aerogenes", "test": "Effectiveness as slimicide for pulp and paper mill water systems", "conditions": "Klebsiella aerogenes, range: growth at lower, read-out: Effectiveness as slimicide (inhibitory concentration range)", "experimental": "as §1"}, "Pseudomonas aeruginosa [1]": {"test_system": "Pseudomonas aeruginosa", "test": "Utility in water and oil emulsions (3.3% cutting oil emulsions)", "conditions": "28° C., weekly reinoculation, read-out: Minimum Inhibitory Concentration Range", "experimental": "The utility of the 2-chloro-3-oxobutyramide derivatives in water and oil emulsions is illustrated below using a commercially available cutting oil. In running these tests, two-fold serial dilutions of 6% solutions of the compound in dimethylformamide was added to 3.3% cutting oil emulsions. The emulsions were prepared by diluting with water a commercially available cutting oil concentrate. The emulsions were inoculated with a culture of Pseudomonas aeruginosa and incubated at 28° C. on a rotary shaker. At weekly intervals, the emulsions were examined for bacteria by conventional streak-plate methods. The emulsions were then reinoculated with Pseudomonas aeruginosa and reincubated. […] indicate the activity range for that compound."}, "Aspergillus niger [2]": {"test_system": "Aspergillus niger", "test": "Utility as a cosmetic preservative (cosmetic lotion)", "conditions": "weekly reinoculation", "experimental": "(§2) The 2-Chloro-3-oxobutyramide derivatives are effective cosmetic preservatives. Two-fold serial dilutions of 6% solutions of the 2-haloacetoacetic acid derivatives in dimethylformamide were added to a cosmetic lotion of the following formulation: |Stearic acid 1.4 g |Arlacel 60 (sorbitan |monostearate) 0.7 g |Tween 20 Polyoxethylene |(20) sorbitan |monostearate 1.6 g |Distilled water 94.0 g The lotions were inoculated with both Pseudomonas aeruginosa and Aspergillus niger and incubated at 28° C. At weekly intervals, the lotions were examined for microorganisms by conventional streak-plate methods or by macroscopic observation. The lotions were then reinoculated with the test organisms and reincubated."}, "Pseudomonas aeruginosa [3]": {"test_system": "Pseudomonas aeruginosa", "test": "Utility as a cosmetic preservative (cosmetic lotion)", "conditions": "weekly reinoculation", "experimental": "as §2"}, "Penicillium piscarium": {"test_system": "Penicillium piscarium", "test": "General antimicrobial activity, 5-fold serial dilution test in agar (MIC)", "conditions": "168 h, 28° C., seven days, growth only at lower concentration of range, read-out: minimum inhibitory concentration (MIC), F3", "experimental": "(§3) General antibacterial and antifungal activity was evaluated by a 5-fold serial dilution test in agar. In this test, compounds were prepared as 6% solutions in dimethylformamide or ethanol. The 6% solution was then 5-fold serially diluted in test tubes to give the desired concentrations when mixed with agar and poured into sterile Petri dishes. Tryptone glucose extract agar was used for the bacterial testing; mildew glucose agar for the fungal testing. The bacterial plates were spot inoculated with 24-hour nutrient broth cultures and incubated at 37° C. for 48 hours. The fungal plates were spot inoculated with spore suspensions and incubated at 28° C. for seven days. At the end of the incubation periods, all plates were examined for growth. The minimum inhibitory concentration (MIC) for each organism is expressed in Table I. In the ranges presented, growth is observed only at the lower concentration.\n(§4) The activity is presented in Tabular Form (Table I) using the following key."}, "Aspergillus niger [4]": {"test_system": "Aspergillus niger", "test": "General antimicrobial activity, 5-fold serial dilution test in agar (MIC)", "conditions": "168 h, 28° C., seven days, growth only at lower concentration of range, read-out: minimum inhibitory concentration (MIC), F1", "experimental": "as §3, §4"}, "Staphylococcus aureus": {"test_system": "Staphylococcus aureus", "test": "General antimicrobial activity, 5-fold serial dilution test in agar (MIC)", "conditions": "37° C., 48 hours, growth only at lower concentration of range, read-out: minimum inhibitory concentration (MIC), B1", "experimental": "as §3, §4"}, "Escherichia coli": {"test_system": "Escherichia coli", "test": "General antimicrobial activity, 5-fold serial dilution test in agar (MIC)", "conditions": "37° C., 48 hours, growth only at lower concentration of range, read-out: minimum inhibitory concentration (MIC), B2", "experimental": "as §3, §4"}, "Aspergillus oryzae": {"test_system": "Aspergillus oryzae", "test": "General antimicrobial activity, 5-fold serial dilution test in agar (MIC)", "conditions": "168 h, 28° C., seven days, growth only at lower concentration of range, read-out: minimum inhibitory concentration (MIC), F2", "experimental": "as §3, §4"}, "Aureobasidium pullulans": {"test_system": "Aureobasidium pullulans", "test": "General antimicrobial activity, 5-fold serial dilution test in agar (MIC)", "conditions": "168 h, 28° C., seven days, growth only at lower concentration of range, read-out: minimum inhibitory concentration (MIC), F4", "experimental": "as §3, §4"}, "Bacillus subtilis": {"test_system": "Bacillus subtilis", "test": "General antimicrobial activity, 5-fold serial dilution test in agar (MIC)", "conditions": "37° C., 48 hours, growth only at lower concentration of range, read-out: minimum inhibitory concentration (MIC), B5", "experimental": "as §3, §4"}, "Proteus vulgaris": {"test_system": "Proteus vulgaris", "test": "General antimicrobial activity, 5-fold serial dilution test in agar (MIC)", "conditions": "37° C., 48 hours, growth only at lower concentration of range, read-out: minimum inhibitory concentration (MIC), B4", "experimental": "as §3, §4"}, "Pseudomonas aeruginosa [5]": {"test_system": "Pseudomonas aeruginosa", "test": "General antimicrobial activity, 5-fold serial dilution test in agar (MIC)", "conditions": "37° C., 48 hours, growth only at lower concentration of range, read-out: minimum inhibitory concentration (MIC), B3", "experimental": "as §3, §4"}}, "note": "Where two headings read alike, the source gives them in different places.", "data": [{"smiles": "CC(=O)C(Cl)C(N)=O", "note": "(stereo not shown) [2-Chloro-3-oxobutyramide]", "values": [{"measurement": "MIC", "setting": "A. niger; Aspergillus niger, week 1, 28° C., read-out: Effectiveness as slimicide (inhibitory concentration range)", "result": 62.5, "unit": "µg/mL"}, {"measurement": "Effectiveness as slimicide (inhibitory concentration range)", "setting": "A. niger; week 2, 28° C.", "result": 62.5, "unit": "µg/mL"}, {"measurement": "Effectiveness as slimicide (inhibitory concentration range)", "setting": "A. niger; week 3, 28° C.", "result": 62.5, "unit": "µg/mL"}, {"measurement": "Effectiveness as slimicide (inhibitory concentration range)", "setting": "A. niger; week 4, 28° C.", "result": 62.5, "unit": "µg/mL"}, {"measurement": "MIC", "setting": "P. aeruginosa; Pseudomonas aeruginosa, week 1, 28° C., read-out: Effectiveness as slimicide (inhibitory concentration range)", "result": 62.5, "unit": "µg/mL"}, {"measurement": "Effectiveness as slimicide (inhibitory concentration range)", "setting": "P. aeruginosa; week 2, 28° C.", "result": 62.5, "unit": "µg/mL"}, {"measurement": "Effectiveness as slimicide (inhibitory concentration range)", "setting": "P. aeruginosa; week 3, 28° C.", "result": 62.5, "unit": "µg/mL"}, {"measurement": "Effectiveness as slimicide (inhibitory concentration range)", "setting": "P. aeruginosa; week 4, 28° C.", "result": 62.5, "unit": "µg/mL"}, {"measurement": "MIC", "setting": "P. piscarium; week 1, 28° C., 62.5 = lowest concentration tested, no growth at it", "result": 62.5, "unit": "µg/mL"}, {"measurement": "MIC", "setting": "P. piscarium; week 2, 28° C., range: growth at lower, none at higher concentration", "result": "62.5 to 125", "unit": "µg/mL"}, {"measurement": "MIC", "setting": "P. piscarium; week 3, 28° C., range: growth at lower, none at higher concentration", "result": "125 to 250", "unit": "µg/mL"}, {"measurement": "MIC", "setting": "P. piscarium; week 4, 28° C., range: growth at lower, none at higher concentration", "result": "125 to 250", "unit": "µg/mL"}, {"measurement": "MIC", "setting": "E. aerogenes; week 1, 28° C., none at higher, 62.5 = lowest concentration tested, no growth at it", "result": 62.5, "unit": "µg/mL"}, {"measurement": "MIC", "setting": "E. aerogenes; week 2, 28° C., none at higher, 62.5 = lowest concentration tested, no growth at it", "result": 62.5, "unit": "µg/mL"}, {"measurement": "MIC", "setting": "E. aerogenes; week 3, 28° C., none at higher concentration", "result": "62.5 to 125", "unit": "µg/mL"}, {"measurement": "MIC", "setting": "E. aerogenes; week 4, 28° C., none at higher concentration", "result": "62.5 to 125", "unit": "µg/mL"}, {"measurement": "MIC", "setting": "Pseudomonas aeruginosa [1]; Week 1, 3.3% cutting oil emulsion", "result": "8 to 16", "unit": "µg/mL"}, {"measurement": "MIC", "setting": "Pseudomonas aeruginosa [1]; Week 2, 3.3% cutting oil emulsion", "result": "63 to 125", "unit": "µg/mL"}, {"measurement": "MIC", "setting": "Pseudomonas aeruginosa [1]; Week 3, 3.3% cutting oil emulsion", "result": "63 to 125", "unit": "µg/mL"}, {"measurement": "MIC", "setting": "Pseudomonas aeruginosa [1]; Week 4, 3.3% cutting oil emulsion", "result": "63 to 125", "unit": "µg/mL"}, {"measurement": "minimum inhibitory concentration effective in preventing microbial growth", "setting": "Aspergillus niger [2]; Week 1, 28° C.", "result": "5 (63-125 mcg/gm)"}, {"measurement": "minimum inhibitory concentration effective in preventing microbial growth", "setting": "Aspergillus niger [2]; Week 2, 28° C.", "result": "5 (63-125 mcg/gm)"}, {"measurement": "minimum inhibitory concentration effective in preventing microbial growth", "setting": "Aspergillus niger [2]; Week 3, 28° C.", "result": "4 (125-250 mcg/gm)"}, {"measurement": "minimum inhibitory concentration effective in preventing microbial growth", "setting": "Aspergillus niger [2]; Week 4, 28° C.", "result": "2 (500-1000 mcg/gm)"}, {"measurement": "minimum inhibitory concentration effective in preventing microbial growth", "setting": "Pseudomonas aeruginosa [3]; Week 1, 28° C.", "result": "5 (63-125 mcg/gm)"}, {"measurement": "minimum inhibitory concentration effective in preventing microbial growth", "setting": "Pseudomonas aeruginosa [3]; Week 2, 28° C.", "result": "5 (63-125 mcg/gm)"}, {"measurement": "minimum inhibitory concentration effective in preventing microbial growth", "setting": "Pseudomonas aeruginosa [3]; Week 3, 28° C.", "result": "4 (125-250 mcg/gm)"}, {"measurement": "minimum inhibitory concentration effective in preventing microbial growth", "setting": "Pseudomonas aeruginosa [3]; Week 4, 28° C.", "result": "4 (125-250 mcg/gm)"}, {"measurement": "MIC", "setting": "Penicillium piscarium", "result": "15.3 to 76.8", "unit": "µg/mL"}, {"measurement": "MIC", "setting": "Aspergillus niger [4]", "result": "15.3 to 76.8", "unit": "µg/mL"}, {"measurement": "MIC", "setting": "Staphylococcus aureus", "result": "15.3 to 76.8", "unit": "µg/mL"}, {"measurement": "MIC", "setting": "Escherichia coli", "result": "15.3 to 76.8", "unit": "µg/mL"}, {"measurement": "MIC", "setting": "Aspergillus oryzae", "result": "15.3 to 76.8", "unit": "µg/mL"}, {"measurement": "MIC", "setting": "Aureobasidium pullulans", "result": "15.3 to 76.8", "unit": "µg/mL"}, {"measurement": "MIC", "setting": "Bacillus subtilis", "result": "15.3 to 76.8", "unit": "µg/mL"}, {"measurement": "MIC", "setting": "Proteus vulgaris", "result": "15.3 to 76.8", "unit": "µg/mL"}, {"measurement": "MIC", "setting": "Pseudomonas aeruginosa [5]", "result": "15.3 to 76.8", "unit": "µg/mL"}]}]}
